In ChEMBL document CHEMBL1148042, “Novel bioactive diterpenoids from Aframomum aulacocarpos” (1994):
Converted amounts (≈) assume the structure as drawn.

How the values were obtained:
Type in all cases: functional
Bacillus subtilis = assay: Antibacterial activity against Bacillus subtilis ATCC 6633 by serial dilution assay
Rhizomucor miehei = assay: Antifungal activity against Mucor miehei by plate diffusion assay
L1210 = assay: Cytotoxicity against mouse L1210 cells; conditions: read-out: ED50 (the source's name)

Compound | MIC (Bacillus subtilis) | MIC (Rhizomucor miehei) | EC50 (L1210)
COC(=O)/C(=C/C[C@H]1[C@@]2(CC[C@H]3C(C)(C)[C@@H](O)CC[C@@]31C)CO2)C1CO1 (stereo partly drawn) [AULACOCARPINE A] | 25 µg/mL (≈ 68.6 µM) | 50 µg/mL (≈ 137 µM) | –
CC1(C)[C@@H](O)CC[C@]2(C)C3=C(CC[C@@H]12)CO[C@@H](C1=CCOC1=O)C3 [AULACOCARPINOLIDE] | 25 µg/mL (≈ 75.2 µM) | 50 µg/mL (≈ 150 µM) | 12.5 µg/mL (≈ 37.6 µM)
COC(=O)/C(=C/C[C@H]1[C@]2(CO2)C[C@@H](O)[C@H]2C(C)(C)[C@@H](O)CC[C@@]21C)C1CO1 (stereo partly drawn) [AULACOCARPIN B] | 25 µg/mL (≈ 65.7 µM) | 50 µg/mL (≈ 131 µM) | 25 µg/mL (≈ 65.7 µM)
